Experimental data taken from patent publication US12391701B2, “Chromene-based compounds, methods and uses thereof” (University of Minho, priority 2019, dated 2025).
pIC50: −log10 of the molar value. Where two headings read alike, the source gives them in different places.

Assays:
Type in all cases: cell-based
[1] = system: breast cancer cell line MCF-7; test: Cell viability assay (MTS), MCF-7; settings: Homo sapiens, MCF7; 72 h incubation
Procedure: (§1) In an embodiment, the cell growth inhibition and IC50 values of the synthesised and isolated chromene-based compounds were determined as part of the evaluation of the antiproliferative activity of the isolated agents. A complete study on the structure-activity relationship was performed for all the synthesised compounds. The antiproliferative activity against MCF-7 breast cancer cell lines were analysed. […] The non-neoplastic cell line MCF-10A was also used to determine the selectivity of the compounds for the tumour cells. For compounds with an IC50 value (concentration required to reduce cell viability by 50%) higher than 20 μM, the IC50 value was not determined. Selectivity index (SI) was calculated in order to evaluate the cytotoxicity of the tested compounds.
(§2) In an embodiment, three human breast cancer cell lines Hs578T, MDA-MB-468 and MCF-7, and a normal breast cell line MCF-10A, were obtained from ATCC (American Type Culture Collection). The cancer cell lines were cultured in Dulbecco's modified Eagle medium, 4.5 g/l glucose (DMEM, Gibco) supplemented with 10% heating inactivated Fetal Bovine Serum (FBS, Gibco) and 1% antibiotic solution (Penicillin-Streptomycin, Gibco). The normal cell line was cultured in Dulbecco's Modified Eagle Medium: Nutrient Mixture F-12 (DMEM/F12, Gibco) supplemented with 5% heating inactivated FBS (Gibco), 1% antibiotic solution (Penicillin-Streptomycin, Gibco), 1% steroid hormone (Hydrocortisone, Sigma-Aldrich), 0.1% peptide hormone (Insulin, Sigma-Aldrich) and 0.01% protein complex (Cholera Toxin, Gibco). Two distinct human acute myeloid leukemia (AML) cell lines, HL-60 (FAB M2) and KG-1 (erythroleukemia-FAB M6), and one human lymphoblastic leukemia (ALL) cell line, Jurkat (T cell type), were also used. These three cell lines were obtained from German Collection of Microorganisms and Cell cultures (DMSZ®, Deutsche Sammlung von Mikroorganismen and Zellkulturen in German). Cells were cultured in RPMI 1640 medium (Biochrom®-Merck Millipore) supplemented with 10% heating inactivated FBS (Biochrom®-Merck Millipore) and 1% antibiotic/antimitotic mixture (Invitrogen®). Three human glioblastoma (GBM) cell line models, two established and commercially available cell lines (U87MG and GAMG, kind gift from Rui M. Reis) and one primary GBM culture (GLIB) were also used. GBM cells were cultures in DMEM (Biochrom-Merck Millipore), all supplemented with 10% FBS. The Renal cell carcinoma cell lines A498, 786-O, Caki-2 and HK2 were obtained from ATCC. The cancer cell line A498 was cultured in MEM medium (Biochrom®-Merck Millipore), 786-O was cultured in RPMI 1640 medium (Biochrom®-Merck Millipore), Caki-2 was cultured in Mc Coys medium (Biochrom®-Merck Millipore) and HK2 was cultured in RPMI 1640 medium (Biochrom®-Merck Millipore). All the media were supplemented with 10% heat inactivated FBS (Biochrom®-Merck Millipore) and 1% antibiotic/antimitotic mixture (Invitrogen®). All cells were grown in a humidified incubator at 37° C. and 5% CO2. For all assays, DMSO (Dimethyl Sulfoxide, Sigma-Aldrich) controls were used.
(§3) In an embodiment, cell viability assays were performed. MCF-7, Hs578T and MCF-10A cells were plated in triplicate in 96-multiwell culture plates, at 3000 cells […], or 5000 cells […] for MDA-MB-468 (100 μL/well). The cells were then allowed to adhere in complete medium, over a period of 18-20 hours. Cells were subsequently treated with 7 different concentrations (from 0.1 to 40 μM or 5 to 60 μM) of compounds or control in fresh medium. HL-60, KG-1 and Jurkat cell lines were plated in 96-multiwell culture plates at 50.000 cells/100 μL per well and treated with different concentrations (from 0.001 to 2 μM) of the compounds described (or control). Cells were plated, in triplicate, at an initial density of 2000 cells/well for GAMG, 4000 cells/well for GL18 and 6000 cells/well for U87MG, in 96-well plates, and allowed to adhere for 18-20 hours. […]

[2] = system: renal carcinoma cell line 786-O; test: Cell viability (sulforhodamine B), 786-O; settings: Homo sapiens, 786-0; Table 5
Procedure: (§4) In an embodiment, the antiproliferative activity of the compounds was further determined against renal carcinoma cell lines and non-neoplastic kidney cell line.
as §2
(§5) In an embodiment, cell viability assays were performed. MCF-7, Hs578T and MCF-10A cells were plated in triplicate in 96-multiwell culture plates, at 3000 cells per mL, or 5000 cells per mL for MDA-MB-468 (100 μL/well). The cells were then allowed to adhere in complete medium, over a period of 18-20 hours. Cells were subsequently treated with 7 different concentrations (from 0.1 to 40 μM or 5 to 60 μM) of compounds or control in fresh medium. HL-60, KG-1 and Jurkat cell lines were plated in 96-multiwell culture plates at 50.000 cells/100 μL per well and treated with different concentrations (from 0.001 to 2 μM) of the compounds described (or control). Cells were plated, in triplicate, at an initial density of 2000 cells/well for GAMG, 4000 cells/well for GL18 and 6000 cells/well for U87MG, in 96-well plates, and allowed to adhere for 18-20 hours. Cells were then treated with different concentrations of the compounds (0.005 to 100 μM) or with control. A498 and 786-O cells were plated at 2000 cells per mL, Caki-2 cells were plated at 3000 cells per mL and HK2 cells were plated at 2000 cells per mL in triplicate, in 96-multiwell culture plates (100 μL/well), and allowed to adhere over a period of 18-20 hours in complete medium. The cells were then treated with 7 different concentrations (from 0.1 to 40 μM or 5 to 60 μM) of compounds or control in fresh medium. […]

[3] = system: renal carcinoma cell line Caki-2; test: Cell viability (sulforhodamine B), Caki-2; settings: Homo sapiens, Table 5
Procedure: as §4, §2, §5

[4] = system: non-neoplastic cell line MCF-10A; test: Cell viability assay (MTS), MCF-10A; settings: Homo sapiens, 72 h incubation
Procedure: as §1, §2, §3

[5] = system: non-neoplastic cell line (HK2); test: Cell viability, HK2; settings: for pIC50: Table 5, read-out: IC50 HK2; for IC50: Table 6, read-out: IC50 (μM) HK2
Procedure: as §4, §2, §5

Row | Compound | pIC50 [1] | pIC50 [2] | pIC50 [3] | pIC50 [4] | pIC50 [5] | IC50 [5]
1 | COc1cccc2c1Oc1nc(-c3ccccc3)[nH]c1C2 [MC350, 5-methoxy-2-phenyl-3,9-dihydrochromeno[2,3-d]imidazoles] | 6.13 | 6.29 | 6.40 | 5.07 | 4.67 | 21.5 µM
2 | COc1cccc2c1Oc1nc(-c3ccccc3F)[nH]c1C2C1c2cccc(OC)c2Oc2nc(-c3ccccc3F)[nH]c21 (stereo not drawn) [MC369, 2,2′-bis(2-fluorophenyl)-5,5′-dimethoxy-1,1,9,9′-tetrahydro-9,9′-bichromeno[2,3-]imidazoles] | 6.59 | 7.28 | 6.96 | < 4.70 | 6.08 | 
3 | COc1cccc2c1Oc1nc(-c3ccc(F)cc3)[nH]c1C2C1c2cccc(OC)c2Oc2nc(-c3ccc(F)cc3)[nH]c21 (stereo not drawn) [MC406, 2,2′-bis(4-fluorophenyl)-5,5′-dimethoxy-1,1,9,9′-tetrahydro-9,9′-bichromeno[2,3-]imidazoles] | 6.70 | 7.08 | 6.75 | 4.90 | 6.51 | 
4 | COc1cccc2c1Oc1nc(-c3ccccc3F)[nH]c1C2 [MC407, 2-(2-fluorophenyl)-5-methoxy-3,9-dihydrochromeno[2,3-d]imidazoles] | 6.17 | 6.17 | 6.36 | 5.41 | 5.99 | 
5 | COc1cccc2c1Oc1nc(-c3ccc(Br)cc3)[nH]c1C2 [MC408, 2-(4-bromophenyl)-5-methoxy-3,9-dihydrochromeno[2,3-d]imidazoles] | 6.21 | 7.19 | 7.05 | 5.52 | 5.46 | 3.49 µM
6 | COc1cccc2c1Oc1nc(-c3ccc(F)cc3)[nH]c1C2 [MC409, 2-(4-fluorophenyl)-5-methoxy-3,9-dihydrochromeno[2,3-d]imidazoles] | 6.19 | 6.31 | 6.44 | 4.85 | 5.46 | 3.49 µM
7 | COc1cccc2c1Oc1nc(-c3cc(F)cc(F)c3O)[nH]c1C2 [MC410, 2,4-difluoro-6-(5-methoxy-3,9-dihydrochromeno[2,3-d]imidazol-2-yl)phenol] | 5.45 | 6.35 | 5.07 | < 4.52 | 4.64 | 23.1 µM
8 | COc1ccccc1-c1nc2c([nH]1)Cc1cccc(OC)c1O2 [MC411, 5-methoxy-2-(2-methoxyphenyl)-3,9-dihydrochromeno[2,3-]imidazoles] | 5.77 | 5.43 | 5.40 | 5.17 | 5.33 | 4.73 µM
9 | COc1cccc2c1Oc1nc(-c3ccc(O)cc3)[nH]c1C2 [MC413, 4-(5-methoxy-3,9-dihydrochromeno[2,3-d]imidazol-2-yl)phenol] | 5.96 | 6.14 | 6.42 | < 4.70 | 4.99 | 10.3 µM
10 | CCOc1ccc(-c2nc3c([nH]2)Cc2cccc(OC)c2O3)cc1 [MC415, 2-(4-ethoxyphenyl)-5-methoxy-3,9-dihydrochromeno[2,3-d]imidazoles] | 5.79 | 6.66 | 7.21 | 5.72 | 5.28 | 5.24 µM
11 | COc1ccc(-c2nc3c([nH]2)Cc2cccc(OC)c2O3)c(Br)c1O [MC416, 2-bromo-6-methoxy-3-(5-methoxy-3,9-dihydrochromeno[2,3-]imidazol-2-yl)phenol] | 5.98 | 5.50 | 5.59 | 5.70 | 5.33 | 4.72 µM
12 | COc1cccc2c1Oc1nc(-c3ccc(Br)cc3)[nH]c1C2C1c2cccc(OC)c2Oc2nc(-c3ccc(Br)cc3)[nH]c21 (stereo not drawn) [MC421, 2,2′-bis(4-bromophenyl)-5,5′-dimethoxy-1,1,9,9′-tetrahydro-9,9′-bichromeno[2,3-]imidazoles] | 6.51 | 7.11 | 6.37 | < 4.52 | 5.60 | 2.49 µM
